Like-named read-outs stand apart in the source and are kept apart here.
What was measured:
[1] = target: T1, beta-catenin/TCF4 engagement (Homo sapiens, UniProt P35222); assay: Nano-BRET target engagement assay (B-cat-Halo & TCF4-Luc in HEK293 cells); assay type: cell-based; conditions: read-out: NanoBRET Abs IC50
T1 construct: expressed in transfected cells; host or cells: HEK293
T1 sequence (P35222 1-781): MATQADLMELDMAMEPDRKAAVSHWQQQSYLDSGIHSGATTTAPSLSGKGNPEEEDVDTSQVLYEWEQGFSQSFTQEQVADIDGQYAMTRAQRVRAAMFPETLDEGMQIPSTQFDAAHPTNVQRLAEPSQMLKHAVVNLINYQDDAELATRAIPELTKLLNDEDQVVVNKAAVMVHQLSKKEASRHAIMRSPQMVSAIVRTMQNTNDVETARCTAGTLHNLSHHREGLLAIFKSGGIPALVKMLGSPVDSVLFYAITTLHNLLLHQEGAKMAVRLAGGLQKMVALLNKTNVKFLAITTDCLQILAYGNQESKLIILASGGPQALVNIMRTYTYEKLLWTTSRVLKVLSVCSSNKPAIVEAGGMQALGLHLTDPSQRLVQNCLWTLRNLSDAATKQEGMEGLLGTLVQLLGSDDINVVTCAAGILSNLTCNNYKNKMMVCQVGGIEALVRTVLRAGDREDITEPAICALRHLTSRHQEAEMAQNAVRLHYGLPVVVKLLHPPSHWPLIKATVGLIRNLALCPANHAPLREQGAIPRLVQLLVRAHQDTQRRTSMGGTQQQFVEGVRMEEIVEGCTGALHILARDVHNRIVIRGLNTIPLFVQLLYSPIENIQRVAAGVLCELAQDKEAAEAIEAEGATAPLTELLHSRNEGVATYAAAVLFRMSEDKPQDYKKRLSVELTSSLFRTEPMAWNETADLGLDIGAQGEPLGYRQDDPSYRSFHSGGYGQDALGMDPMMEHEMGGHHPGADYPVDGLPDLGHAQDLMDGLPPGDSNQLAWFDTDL

[2] = target: T2, full-length beta-Catenin (Uniprot ID P35222) (Homo sapiens, UniProt P35222); assay: Fluorescence polarization IC50 (beta-catenin / 5FAM-TCF4 10-53 competition); assay type: binding; conditions: fluorescence polarization; read-out: beta-Catenin FP IC50
T2 construct: 10 nM full-length beta-Catenin (Uniprot ID P35222)
T2 sequence (P35222 1-781): T1 sequence (P35222 1-781)

| Compound | IC50 ([1]; absolute IC50) [nM] | IC50 [2] [nM] | IC50 [1] [nM] |
| --- | --- | --- | --- |
| CC(=O)N1CCC[C@]12CC=CCCCC1(CCCC=CCCCOC(=O)N3CC[C@@](C(=O)N[C@@H](Cc4ccccc4Cl)C(=O)N[C@@H](Cc4csc5ccccc45)C(=O)N[C@@H](CCC(N)=O)C(N)=O)(C3)NC(=O)[C@H](CC(C)C)NC(=O)[C@H](Cc3ccccc3)NC(=O)[C@H](C)NC(=O)[C@H](C)NC(=O)[C@H](CN(CC(=O)O)CC(F)(F)F)NC(=O)[C@H](CC(=O)O)NC1=O)NC(=O)[C@H](CC(C)(C)C)NC(=O)[C@H](CC(=O)O)NC2=O (stereo partly drawn) [I-1833, Ac-PL3-Asp-Npg-B5-Asp-TfeGA-Ala-Ala-Phe-Leu-PyrS2-2C1F-BztA-Gln-NH2] | 6900 | 26 |  |
| CC(=O)N1CCC[C@]12CC=CCCCC1(CCCC=CCCCOC(=O)N3CC[C@@](C(=O)N[C@@H](Cc4ccsc4)C(=O)N[C@@H](Cc4csc5ccccc45)C(=O)N[C@@H](CCC(N)=O)C(N)=O)(C3)NC(=O)[C@H](CC(C)C)NC(=O)[C@H](Cc3ccccc3)NC(=O)[C@H](C)NC(=O)[C@H](C)NC(=O)[C@H](CCN(CC(=O)O)Cc3ccccc3)NC(=O)[C@H](CC(=O)O)NC1=O)NC(=O)[C@H](CC(C)(C)C)NC(=O)[C@H](CC(=O)O)NC2=O (stereo partly drawn) [I-1834, Ac-PL3-Asp-Npg-B5-Asp-[Bn]GAbu-Ala-Ala-Phe-Leu-PyrS2-3Thi-BztA-Gln-NH2] | 18800 | 35 |  |
| CC(=O)N1CCC[C@]12CC=CCCCC1(CCCC=CCCCOC(=O)N3CC[C@@](C(=O)N[C@@H](Cc4ccsc4)C(=O)N[C@@H](Cc4csc5ccccc45)C(=O)N[C@@H](CCC(N)=O)C(N)=O)(C3)NC(=O)[C@H](CC(C)C)NC(=O)[C@H](Cc3ccccc3)NC(=O)[C@H](C)NC(=O)[C@H](C)NC(=O)[C@H](CCN(CC(=O)O)Cc3c(F)c(F)c(F)c(F)c3F)NC(=O)[C@H](CC(=O)O)NC1=O)NC(=O)[C@H](CC(C)(C)C)NC(=O)[C@H](CC(=O)O)NC2=O (stereo partly drawn) [I-1838, Ac-PL3-Asp-Npg-B5-Asp-[Pfbn]GAbu-Ala-Ala-Phe-Leu-PyrS2-3Thi-BztA-Gln-NH2] | 7900 | 85 |  |
| CC(=O)N1CCC[C@]12CC=CCCCC1(CCCC=CCCCOC(=O)N3CC[C@@](C(=O)N[C@@H](Cc4ccsc4)C(=O)N[C@@H](Cc4csc5ccccc45)C(=O)N[C@@H](CCC(N)=O)C(N)=O)(C3)NC(=O)[C@H](CC(C)C)NC(=O)[C@H](Cc3ccccc3)NC(=O)[C@H](C)NC(=O)[C@H](C)NC(=O)[C@H](CCNCC(=O)O)NC(=O)[C@H](CC(=O)O)NC1=O)NC(=O)[C@H](CC(C)(C)C)NC(=O)[C@H](CC(=O)O)NC2=O (stereo partly drawn) [I-1841, Ac-PL3-Asp-Npg-B5-Asp-GAbu-Ala-Ala-Phe-Leu-PyrS2-3Thi-BztA-Gln-NH2] | > 20000 | 76 |  |
| CC(=O)N1CCC[C@]12CC=CCCCC1(CCCC=CCCCOC(=O)N3CC[C@@](C(=O)N[C@@H](Cc4ccsc4)C(=O)N[C@@H](Cc4csc5ccccc45)C(=O)N[C@@H](CCC(N)=O)C(N)=O)(C3)NC(=O)[C@H](CC(C)C)NC(=O)[C@H](Cc3ccccc3)NC(=O)[C@H](C)NC(=O)[C@H](C)NC(=O)[C@H](CNc3ccc([N+](=O)[O-])cc3C(=O)O)NC(=O)[C@H](CC(=O)O)NC1=O)NC(=O)[C@H](CC(C)(C)C)NC(=O)[C@H](CC(=O)O)NC2=O (stereo partly drawn) [I-1843, Ac-PL3-Asp-Npg-B5-Asp-[2COOH4NO2Ph]Dap-Ala-Ala-Phe-Leu-PyrS2-3Thi-BztA-Gln-NH2] | 9500 | 32 |  |
| CC(=O)N1CCC[C@]12CC=CCCCC1(CCCC=CCCCOC(=O)N3CC[C@@](C(=O)N[C@@H](Cc4ccsc4)C(=O)N[C@@H](Cc4csc5ccccc45)C(=O)N[C@@H](CCC(N)=O)C(N)=O)(C3)NC(=O)[C@H](CC(C)C)NC(=O)[C@H](Cc3ccccc3)NC(=O)[C@H](C)NC(=O)[C@H](C)NC(=O)[C@H](CNc3ncccc3C(=O)O)NC(=O)[C@H](CC(=O)O)NC1=O)NC(=O)[C@H](CC(C)(C)C)NC(=O)[C@H](CC(=O)O)NC2=O (stereo partly drawn) [I-1845, Ac-PL3-Asp-Npg-B5-Asp-[2Nic]Dap-Ala-Ala-Phe-Leu-PyrS2-3Thi-BztA-Gln-NH2] | 6300 | 30 |  |
| CC(=O)N1CC2CC1C(=O)N[C@@H](CC(=O)O)C(=O)N[C@@H](CC(C)(C)C)C(=O)NC1(CCCC=CCCCOC(=O)N3CC[C@@](C(=O)N[C@@H](Cc4ccccc4Cl)C(=O)N[C@@H](Cc4csc5ccccc45)C(=O)N[C@@H](CCC(N)=O)C(N)=O)(C3)NC(=O)[C@H]([C@@H](C)O)NC(=O)[C@H](Cc3ccccc3)NC(=O)[C@H](C)NC(=O)[C@H](C)NC(=O)[C@H](CN(CC(=O)O)CC(F)(F)F)NC(=O)[C@H](CC(=O)O)NC1=O)CCCC=CCCC(=O)O2 (stereo partly drawn) [I-1846, Ac-HyPEs5-Asp-Npg-B5-Asp-TfeGA-Ala-Ala-Phe-Thr-PyrS2-2C1F-BztA-Gln-NH2] | 29800 | 38 |  |
| CC(=O)N1CCC[C@]12CC=CCCCC1(CCCC=CCCCOC(=O)N3CC[C@@](C(=O)N[C@@H](Cc4ccccc4Cl)C(=O)N[C@@H](Cc4csc5ccccc45)C(=O)N[C@@H](CO)C(N)=O)(C3)NC(=O)[C@H](C)NC(=O)[C@H](Cc3ccccc3)NC(=O)[C@H](C)NC(=O)[C@H](C)NC(=O)[C@H](Cc3cccc(C(=O)O)c3)NC(=O)[C@H](CC(=O)O)NC1=O)NC(=O)[C@H](CC(C)(C)C)NC(=O)[C@H](CC(=O)O)NC2=O (stereo partly drawn) [I-1849, Ac-PL3-Asp-Npg-B5-Asp-3COOHF-Ala-Ala-Phe-Ala-PyrS2-2C1F-BztA-Ser-NH2] |  | 19 | 8800 |
| CC(=O)N1CCC[C@]12CC=CCCCC1(CCCC=CCCCOC(=O)N3CC[C@@](C(=O)N[C@@H](Cc4ccccc4Cl)C(=O)N[C@@H](Cc4csc5ccccc45)C(=O)N[C@@H](CO)C(N)=O)(C3)NC(=O)[C@H](C(C)C)NC(=O)[C@H](Cc3ccccc3)NC(=O)[C@H](C)NC(=O)[C@H](C)NC(=O)[C@H](Cc3cccc(C(=O)O)c3)NC(=O)[C@H](CC(=O)O)NC1=O)NC(=O)[C@H](CC(C)(C)C)NC(=O)[C@H](CC(=O)O)NC2=O (stereo partly drawn) [I-1850, Ac-PL3-Asp-Npg-B5-Asp-3COOHF-Ala-Ala-Phe-Val-PyrS2-2C1F-BztA-Ser-NH2] |  | 17 | 3800 |

The remaining lines, values ahead:

| IC50 ([1]; absolute IC50) [nM] | IC50 [2] [nM] | IC50 [1] [nM] | Compound |
| --- | --- | --- | --- |
| 31900 | 34 |  | CCN(CC[C@@H]1NC(=O)[C@H](CC(=O)O)NC(=O)C2(CCCC=CCCCOC(=O)N3CC[C@@](C(=O)N[C@@H](Cc4ccsc4)C(=O)N[C@@H](Cc4csc5ccccc45)C(=O)N[C@@H](CCC(N)=O)C(N)=O)(C3)NC(=O)[C@H](CC(C)C)NC(=O)[C@H](Cc3ccccc3)NC(=O)[C@H](C)NC(=O)[C@H](C)NC1=O)CCCC=CC[C@]1(CCCN1C(C)=O)C(=O)N[C@@H](CC(=O)O)C(=O)N[C@@H](CC(C)(C)C)C(=O)N2)CC(=O)O (stereo partly drawn) [I-1835, Ac-PL3-Asp-Npg-B5-Asp-[Et]GAbu-Ala-Ala-Phe-Leu-PyrS2-3Thi-BztA-Gln-NH2] |
| 18500 | 19 |  | CC(=O)N1CCC[C@]12CC=CCCCC1(CCCC=CCCCOC(=O)N3CC[C@@](C(=O)N[C@@H](Cc4ccsc4)C(=O)N[C@@H](Cc4csc5ccccc45)C(=O)N[C@@H](CCC(N)=O)C(N)=O)(C3)NC(=O)[C@H](CC(C)C)NC(=O)[C@H](Cc3ccccc3)NC(=O)[C@H](C)NC(=O)[C@H](C)NC(=O)[C@H](CCN(CCCC(F)(F)F)CC(=O)O)NC(=O)[C@H](CC(=O)O)NC1=O)NC(=O)[C@H](CC(C)(C)C)NC(=O)[C@H](CC(=O)O)NC2=O (stereo partly drawn) [I-1837, Ac-PL3-Asp-Npg-B5-Asp-[Tfb]GAbu-Ala-Ala-Phe-Leu-PyrS2-3Thi-BztA-Gln-NH2] |
| 14600 | 21 |  | CC(=O)N1CCC[C@]12CC=CCCCC1(CCCC=CCCCOC(=O)N3CC[C@@](C(=O)N[C@@H](Cc4ccsc4)C(=O)N[C@@H](Cc4csc5ccccc45)C(=O)N[C@@H](CCC(N)=O)C(N)=O)(C3)NC(=O)[C@H](CC(C)C)NC(=O)[C@H](Cc3ccccc3)NC(=O)[C@H](C)NC(=O)[C@H](C)NC(=O)[C@H](CCN(CCC(F)(F)F)CC(=O)O)NC(=O)[C@H](CC(=O)O)NC1=O)NC(=O)[C@H](CC(C)(C)C)NC(=O)[C@H](CC(=O)O)NC2=O (stereo partly drawn) [I-1839, Ac-PL3-Asp-Npg-B5-Asp-[Tfp]GAbu-Ala-Ala-Phe-Leu-PyrS2-3Thi-BztA-Gln-NH2] |
| 22300 | 14 |  | CC(=O)N(CC[C@@H]1NC(=O)[C@H](CC(=O)O)NC(=O)C2(CCCC=CCCCOC(=O)N3CC[C@@](C(=O)N[C@@H](Cc4ccsc4)C(=O)N[C@@H](Cc4csc5ccccc45)C(=O)N[C@@H](CCC(N)=O)C(N)=O)(C3)NC(=O)[C@H](CC(C)C)NC(=O)[C@H](Cc3ccccc3)NC(=O)[C@H](C)NC(=O)[C@H](C)NC1=O)CCCC=CC[C@]1(CCCN1C(C)=O)C(=O)N[C@@H](CC(=O)O)C(=O)N[C@@H](CC(C)(C)C)C(=O)N2)CC(=O)O (stereo partly drawn) [I-1840, Ac-PL3-Asp-Npg-B5-Asp-[Ac]GAbu-Ala-Ala-Phe-Leu-PyrS2-3Thi-BztA-Gln-NH2] |

From US20240116985A1, “STAPLED PEPTIDES AND METHODS THEREOF” (priority 2020, published 2024)
